A short description of experiment [1]: Inhibition of CAMKK in human RPMI-8226 cells assessed as reduction of cell growth incubated for 72 hrs by CellTiter 96 aqueous one solution cell proliferation assay. As to conditions: RPMI-8226, 72 h. Format: cell-based.
The nature of experiment [2]: Inhibition of CAMKK in bortezomib Resistant human RPMI-8226 cells assessed as reduction of cell growth incubated for 72 hrs by CellTiter 96 aqueous one solution cell proliferation assay. In kind it is cell-based. The conditions noted are these: Bortezomib-resistant RPMI-8226, 72 h.
Experiment [3] is described as follows: Inhibition of CAMKK in Melphalan Resistant human RPMI-8226 cells assessed as reduction of cell growth incubated for 72 hrs by CellTiter 96 aqueous one solution cell proliferation assay. Format: cell-based. The conditions noted are these: Melphalan-resistant RPMI-8226 cell.
Experiment [4] in a line: Inhibition of CAMKK in human ANBL-6 cells assessed as reduction of cell growth incubated for 72 hrs by CellTiter 96 aqueous one solution cell proliferation assay. Format: cell-based. The conditions noted are these: ANBL-6, 72 h.
Experiment [5] is described as follows: Inhibition of CAMKK in human bortezomib-resistant ANBL6 cells assessed as reduction of cell growth incubated for 72 hrs by CellTiter 96 aqueous one solution cell proliferation assay. Format: cell-based.
The nature of experiment [6]: Inhibition of CAMKK in human U-266 cells assessed as reduction of cell growth incubated for 72 hrs by CellTiter 96 aqueous one solution cell proliferation assay. In kind it is cell-based. The conditions noted are these: U-266, 72 h.
Experiment [7] is described as follows: Ratio of IC50 for inhibition of CAMKK in human RPMI-8226 cells assessed as reduction of cell viability to IC50 for inhibition of CAMKK in human melphalan-resistant RPMI-8226 cells assessed as reduction of cell viability. The conditions noted are these: time 72 hrs; condition multiple myeloma.
A short description of experiment [8]: Ratio of IC50 for inhibition of CAMKK in human RPMI-8226 cells assessed as reduction of cell viability to IC50 for inhibition of CAMKK in human RPMI-8226/BR resistant cells assessed as reduction of cell viability. As to conditions: condition multiple myeloma.
A short description of experiment [9]: Ratio of IC50 for inhibition of CAMKK in human ANBL6 cells assessed as reduction of cell viability to IC50 for inhibition of CAMKK in human ANBL6/BR resistant cells assessed as reduction of cell viability. As to conditions: condition multiple myeloma.
A short description of experiment [10]: Inhibition of B-RAF-V600E/pERK in human RPMI-8226 cells assessed as reduction of cell growth incubated for 72 hrs by CellTiter 96 aqueous one solution cell proliferation assay. In kind it is cell-based. The conditions noted are these: RPMI-8226, 72 h.
A short description of experiment [11]: Inhibition of B-RAFV600E/pERK in bortezomib Resistant human RPMI-8226 cells assessed as reduction of cell growth incubated for 72 hrs by CellTiter 96 aqueous one solution cell proliferation assay. In kind it is cell-based. As to conditions: Bortezomib-resistant RPMI-8226, 72 h.
A short description of experiment [12]: Inhibition of B-RAFV600E/pERK in Melphalan Resistant human RPMI-8226 cells assessed as reduction of cell growth incubated for 72 hrs by CellTiter 96 aqueous one solution cell proliferation assay. In kind it is cell-based. As to conditions: Melphalan-resistant RPMI-8226 cell.
Experiment [13] is described as follows: Inhibition of B-RAFV600E/pERK in human ANBL-6 cells assessed as reduction of cell growth incubated for 72 hrs by CellTiter 96 aqueous one solution cell proliferation assay. As to conditions: ANBL-6, 72 h. Format: cell-based.
Experiment [14] is described as follows: Inhibition of B-RAFV600E/pERK in human bortezomib-resistant ANBL6 cells assessed as reduction of cell growth incubated for 72 hrs by CellTiter 96 aqueous one solution cell proliferation assay. Format: cell-based.
The nature of experiment [15]: Inhibition of B-RAFV600E/pERK in human U-266 cells assessed as reduction of cell growth incubated for 72 hrs by CellTiter 96 aqueous one solution cell proliferation assay. In kind it is cell-based. The conditions noted are these: U-266, 72 h.
A short description of experiment [16]: Ratio of IC50 for inhibition of B-RAFV600E/pERK in human RPMI-8226 cells assessed as reduction of cell viability to IC50 for inhibition of B-RAFV600E/pERK in human melphalan-resistant RPMI-8226 cells assessed as reduction of cell viability. As to conditions: time 72 hrs; condition multiple myeloma.
A short description of experiment [17]: Ratio of IC50 for inhibition of B-RAFV600E/pERK in human RPMI-8226 cells assessed as reduction of cell viability to IC50 for inhibition of B-RAFV600E/pERK in human RPMI-8226/BR resistant cells assessed as reduction of cell viability. The conditions noted are these: condition multiple myeloma.
A short description of experiment [18]: Ratio of IC50 for inhibition of B-RAFV600E/pERK in human ANBL6 cells assessed as reduction of cell viability to IC50 for inhibition of B-RAFV600E/pERK in human ANBL6/BR resistant cells assessed as reduction of cell viability. As to conditions: condition multiple myeloma.
Experiment [19] in a line: Inhibition of c-KIT/VEGFR1/B-Raf/RET/PDGFR in human RPMI-8226 cells assessed as reduction of cell growth incubated for 72 hrs by CellTiter 96 aqueous one solution cell proliferation assay. The conditions noted are these: RPMI-8226, 72 h. In kind it is cell-based.
Experiment [20] can be described thus: Inhibition of c-KIT/VEGFR2/B-Raf/RET/PDGFR in human RPMI-8226 cells assessed as reduction of cell growth incubated for 72 hrs by CellTiter 96 aqueous one solution cell proliferation assay. In kind it is cell-based. As to conditions: RPMI-8226, 72 h.
A short description of experiment [21]: Inhibition of c-KIT/VEGFR2/B-Raf/RET/PDGFR in bortezomib Resistant human RPMI-8226 cells assessed as reduction of cell growth incubated for 72 hrs by CellTiter 96 aqueous one solution cell proliferation assay. In kind it is cell-based. As to conditions: Bortezomib-resistant RPMI-8226, 72 h.
A short description of experiment [22]: Inhibition of c-KIT/VEGFR1/B-Raf/RET/PDGFR in bortezomib Resistant human RPMI-8226 cells assessed as reduction of cell growth incubated for 72 hrs by CellTiter 96 aqueous one solution cell proliferation assay. Format: cell-based. The conditions noted are these: Bortezomib-resistant RPMI-8226, 72 h.
A short description of experiment [23]: Inhibition of c-KIT/VEGFR2/B-Raf/RET/PDGFR in Melphalan Resistant human RPMI-8226 cells assessed as reduction of cell growth incubated for 72 hrs by CellTiter 96 aqueous one solution cell proliferation assay. As to conditions: Melphalan-resistant RPMI-8226 cell. In kind it is cell-based.
Experiment [24] can be described thus: Inhibition of c-KIT/VEGFR1/B-Raf/RET/PDGFR in Melphalan Resistant human RPMI-8226 cells assessed as reduction of cell growth incubated for 72 hrs by CellTiter 96 aqueous one solution cell proliferation assay. Format: cell-based. As to conditions: Melphalan-resistant RPMI-8226 cell.
The nature of experiment [25]: Inhibition of c-KIT/VEGFR2/B-Raf/RET/PDGFR in human ANBL-6 cells assessed as reduction of cell growth incubated for 72 hrs by CellTiter 96 aqueous one solution cell proliferation assay. As to conditions: ANBL-6, 72 h. In kind it is cell-based.
Experiment [26] is described as follows: Inhibition of c-KIT/VEGFR1/B-Raf/RET/PDGFR in human ANBL-6 cells assessed as reduction of cell growth incubated for 72 hrs by CellTiter 96 aqueous one solution cell proliferation assay. In kind it is cell-based. As to conditions: ANBL-6, 72 h.
A short description of experiment [27]: Inhibition of c-KIT/VEGFR2/B-Raf/RET/PDGFR in human bortezomib-resistant ANBL6 cells assessed as reduction of cell growth incubated for 72 hrs by CellTiter 96 aqueous one solution cell proliferation assay. Format: cell-based.
A short description of experiment [28]: Inhibition of c-KIT/VEGFR1/B-Raf/RET/PDGFR in human bortezomib-resistant ANBL6 cells assessed as reduction of cell growth incubated for 72 hrs by CellTiter 96 aqueous one solution cell proliferation assay. In kind it is cell-based.
Experiment [29] in a line: Inhibition of c-KIT/VEGFR2/B-Raf/RET/PDGFR in human U-266 cells assessed as reduction of cell growth incubated for 72 hrs by CellTiter 96 aqueous one solution cell proliferation assay. In kind it is cell-based. As to conditions: U-266, 72 h.
The nature of experiment [30]: Inhibition of c-KIT/VEGFR1/B-Raf/RET/PDGFR in human U-266 cells assessed as reduction of cell growth incubated for 72 hrs by CellTiter 96 aqueous one solution cell proliferation assay. Format: cell-based. The conditions noted are these: U-266, 72 h.
Experiment [31] is described as follows: Ratio of IC50 for inhibition of c-KIT/VEGFR1/B-Raf/RET/PDGFR in human RPMI-8226 cells assessed as reduction of cell viability to IC50 for inhibition of c-KIT/VEGFR1/B-Raf/RET/PDGFR in human melphalan-resistant RPMI-8226 cells assessed as reduction of cell viability. The conditions noted are these: time 72 hrs; condition multiple myeloma.
Experiment [32] is described as follows: Ratio of IC50 for inhibition of c-KIT/VEGFR2/B-Raf/RET/PDGFR in human RPMI-8226 cells assessed as reduction of cell viability to IC50 for inhibition of c-KIT/VEGFR2/B-Raf/RET/PDGFR in human melphalan-resistant RPMI-8226 cells assessed as reduction of cell viability. As to conditions: time 72 hrs; condition multiple myeloma.
A short description of experiment [33]: Ratio of IC50 for inhibition of c-KIT/VEGFR1/B-Raf/RET/PDGFR in human RPMI-8226 cells assessed as reduction of cell viability to IC50 for inhibition of c-KIT/VEGFR1/B-Raf/RET/PDGFR in human RPMI-8226/BR resistant cells assessed as reduction of cell viability. The conditions noted are these: condition multiple myeloma.
The nature of experiment [34]: Ratio of IC50 for inhibition of c-KIT/VEGFR2/B-Raf/RET/PDGFR in human RPMI-8226 cells assessed as reduction of cell viability to IC50 for inhibition of c-KIT/VEGFR2/B-Raf/RET/PDGFR in human RPMI-8226/BR resistant cells assessed as reduction of cell viability. As to conditions: condition multiple myeloma.
Experiment [35] can be described thus: Ratio of IC50 for inhibition of c-KIT/VEGFR1/B-Raf/RET/PDGFR in human ANBL6 cells assessed as reduction of cell viability to IC50 for inhibition of c-KIT/VEGFR1/B-Raf/RET/PDGFR in human ANBL6/BR resistant cells assessed as reduction of cell viability. The conditions noted are these: condition multiple myeloma.
Experiment [36] can be described thus: Ratio of IC50 for inhibition of c-KIT/VEGFR2/B-Raf/RET/PDGFR in human ANBL6 cells assessed as reduction of cell viability to IC50 for inhibition of c-KIT/VEGFR2/B-Raf/RET/PDGFR in human ANBL6/BR resistant cells assessed as reduction of cell viability. The conditions noted are these: condition multiple myeloma.

As usually defined, the IC50 is the concentration that inhibits the measured activity by half.

For `O=C(O)c1ccc2c3c1cccc3c(=O)n1c3ccccc3nc21`, the IC50 in experiment [1], in [2], in experiment [3], in [4], in [5] and in experiment [6] was 10 µM each time. Also, the “Ratio IC50” value in experiment [7], in [8] and in experiment [9] was 1 in each case.
`OCCn1cc(-c2ccc3c(c2)CC/C3=N\O)c(-c2ccncc2)n1`: the IC50 in [10], in experiment [11], in experiment [12], in [13], in [14] and in [15] was 10 µM in each case. Besides, the “Ratio IC50” value in [16], in experiment [17] and in [18] was 1 in each case.
Take `CNC(=O)c1cc(Oc2ccc(NC(=O)Nc3ccc(Cl)c(C(F)(F)F)c3)c(F)c2)ccn1` [REGORAFENIB]: the IC50 in experiment [19] was 4.07 µM; in experiment [20], 4.07 µM; in experiment [21], 2760 nM; in experiment [22], 2760 nM; in experiment [23], 3.55 µM; in [24], 3.55 µM. For the same molecule, the IC50 in experiment [25] was 9.12 µM; in experiment [26], 9.12 µM; in experiment [27] it was 6.17 µM; in experiment [28], 6.17 µM; in experiment [29], 10 µM; in [30], 10 µM. Further, the “Ratio IC50” value in experiment [31] came to 1.1; in experiment [32], 1.1; in experiment [33] it was 2.45; in experiment [34] it was 2.45; in [35], 1.48; in [36], 1.48.

These data come from ChEMBL document CHEMBL5715952 (Oncotarget, 2015).
